Test results as given in PMC4014116, “Hitting the target: fragment screening with acoustic in situ co-crystallization of proteins plus fragment libraries on pin-mounted data-collection micromeshes” (Acta Crystallographica Section D: Biological Crystallography, 2014).

How the values were obtained:
stachydrine demethylase [1] = target: T1, stachydrine demethylase (Sinorhizobium meliloti, UniProt Q92ZP9); details: 2.3 A; pH 7 HEPES; 25 mM hexaamine CoCl2
T1 construct: gene stc2

lysozyme = target: T2, lysozyme (Gallus gallus, UniProt P00698); test: X-ray structure of co-crystal (fragment screen); type: binding; details: pH 4.6 acetate, 4% NaCl
T2 construct: gene LYZ

stachydrine demethylase [2] = target: T1, stachydrine demethylase; test: X-ray structure of co-crystal; demethylated product seen; type: binding; details: 2.3 A; pH 7 HEPES; 25 mM hexaamine CoCl2; N-methyl group cleaved on X-ray exposure, only L-proline in the density
trypsin = target: T3, trypsin (Bos taurus, UniProt P00760); test: X-ray structure of co-crystal (fragment screen); type: binding; details: pH 7 HEPES, 10 mM CaCl2
T3 construct: gene PRSS1
T3 sequence (P00760 24-246): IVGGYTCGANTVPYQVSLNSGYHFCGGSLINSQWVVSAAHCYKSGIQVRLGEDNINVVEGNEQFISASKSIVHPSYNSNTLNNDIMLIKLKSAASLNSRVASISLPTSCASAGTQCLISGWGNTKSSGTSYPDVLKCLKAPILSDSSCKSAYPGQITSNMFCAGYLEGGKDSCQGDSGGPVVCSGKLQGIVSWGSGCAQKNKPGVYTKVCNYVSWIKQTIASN

O=C(O)[C@@H]1CCCN1 [L-proline]
X-ray structure of co-crystal (stachydrine demethylase [1]): When L-proline was co-crystallized with stachydrine demethylase, the L-proline was observed in the electron density

CC(=O)N[C@H]1C(O)O[C@H](CO)[C@@H](O)[C@@H]1O (stereo partly drawn) [N-acetylglucosamine]
X-ray structure of co-crystal (fragment screen) (lysozyme): The known N-acetylglucosamine ligand was easily identified in the electron density

CN1CCC[C@H]1C(=O)O [N-methylproline]
X-ray structure of co-crystal; demethylated product seen (stachydrine demethylase [2]): exposure to X-rays quickly induces enzymatic cleavage of the N-methyl group, leaving behind L-proline

N=C(N)c1ccccc1 [benzamidine]
X-ray structure of co-crystal (fragment screen) (trypsin; known control): the known benzamidine ligand in the best diffracting no-hit screen
X-ray structure of co-crystal (fragment screen) (lysozyme): Benzamidine was also observed to bind to lysozyme, a previously unreported result (PDB entry 4n8z)

c1c[nH]cn1 [imidazole]
X-ray structure of co-crystal (fragment screen) (trypsin; 10 mg/ml benzamidine present, allosteric site distant from the active site): imidazole (a previously unreported allosteric binding mode that is distant from the active site; PDB entry 4ncy)
